Reference: ChEMBL document CHEMBL1128920, “Tetrahydrothienopyridine derivatives as novel GPIIb/IIIa antagonists” (Bioorg Med Chem Lett, 1996)
“And” between values parts separate entries of the source, which are not always exact repeats. Equal entries are not always repeated.

Assays:
[1] = biological target: T1, Integrin alpha-IIb/beta-3 (Homo sapiens, UniProt P05106+P08514); assay: Biotinylated fibrinogen binding to alpha IIb beta-3 integrin; format: protein-complex assay
Homo sapiens = organism: Homo sapiens; assay: Inhibitory activity against ADP-mediated human platelet aggregation in human platelet rich plasma; format: functional
[2] = biological target: T1, Integrin alpha-IIb/beta-3; assay: Inhibition of biotinylated fibrinogen binding to alphaIIb-beta3 integrin; format: protein-complex assay
[3] = Inhibition of fibronectin binding to GPIIb/IIIIa fibronectin receptor
[4] = biological target: T1, Integrin alpha-IIb/beta-3; assay: Inhibition of Vitronectin binding to GPIIb/IIIIa Vitronectin receptor; format: protein-complex assay
[5] = biological target: T1, Integrin alpha-IIb/beta-3; assay: Inhibition of vWF binding to GPIIb/IIIIa receptor; format: protein-complex assay
[6] = biological target: T1, Integrin alpha-IIb/beta-3; assay: Inhibition of vWF binding to alphaIIb-beta3 integrin; format: protein-complex assay

T1 sequence (P05106 27-788 limits assumed): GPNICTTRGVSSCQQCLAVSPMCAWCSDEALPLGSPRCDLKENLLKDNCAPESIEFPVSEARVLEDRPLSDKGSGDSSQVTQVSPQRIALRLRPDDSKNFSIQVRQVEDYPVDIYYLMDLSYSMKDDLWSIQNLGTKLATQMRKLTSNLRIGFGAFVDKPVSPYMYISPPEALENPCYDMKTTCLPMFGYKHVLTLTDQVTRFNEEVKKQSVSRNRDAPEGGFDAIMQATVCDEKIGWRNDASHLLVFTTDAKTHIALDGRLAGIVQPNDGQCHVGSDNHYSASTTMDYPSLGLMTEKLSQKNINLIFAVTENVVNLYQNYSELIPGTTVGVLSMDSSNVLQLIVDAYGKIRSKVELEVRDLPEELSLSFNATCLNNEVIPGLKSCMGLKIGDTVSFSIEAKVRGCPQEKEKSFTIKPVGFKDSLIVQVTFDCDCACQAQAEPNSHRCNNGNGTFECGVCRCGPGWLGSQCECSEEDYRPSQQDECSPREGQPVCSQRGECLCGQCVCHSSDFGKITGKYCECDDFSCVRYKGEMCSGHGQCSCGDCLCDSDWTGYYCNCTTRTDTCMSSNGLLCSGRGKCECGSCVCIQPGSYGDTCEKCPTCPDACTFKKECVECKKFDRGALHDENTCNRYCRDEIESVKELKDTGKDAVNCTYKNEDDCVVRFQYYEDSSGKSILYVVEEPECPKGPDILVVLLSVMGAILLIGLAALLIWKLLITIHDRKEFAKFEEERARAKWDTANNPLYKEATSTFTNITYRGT
T1 sequence (P08514 32-887 limits assumed): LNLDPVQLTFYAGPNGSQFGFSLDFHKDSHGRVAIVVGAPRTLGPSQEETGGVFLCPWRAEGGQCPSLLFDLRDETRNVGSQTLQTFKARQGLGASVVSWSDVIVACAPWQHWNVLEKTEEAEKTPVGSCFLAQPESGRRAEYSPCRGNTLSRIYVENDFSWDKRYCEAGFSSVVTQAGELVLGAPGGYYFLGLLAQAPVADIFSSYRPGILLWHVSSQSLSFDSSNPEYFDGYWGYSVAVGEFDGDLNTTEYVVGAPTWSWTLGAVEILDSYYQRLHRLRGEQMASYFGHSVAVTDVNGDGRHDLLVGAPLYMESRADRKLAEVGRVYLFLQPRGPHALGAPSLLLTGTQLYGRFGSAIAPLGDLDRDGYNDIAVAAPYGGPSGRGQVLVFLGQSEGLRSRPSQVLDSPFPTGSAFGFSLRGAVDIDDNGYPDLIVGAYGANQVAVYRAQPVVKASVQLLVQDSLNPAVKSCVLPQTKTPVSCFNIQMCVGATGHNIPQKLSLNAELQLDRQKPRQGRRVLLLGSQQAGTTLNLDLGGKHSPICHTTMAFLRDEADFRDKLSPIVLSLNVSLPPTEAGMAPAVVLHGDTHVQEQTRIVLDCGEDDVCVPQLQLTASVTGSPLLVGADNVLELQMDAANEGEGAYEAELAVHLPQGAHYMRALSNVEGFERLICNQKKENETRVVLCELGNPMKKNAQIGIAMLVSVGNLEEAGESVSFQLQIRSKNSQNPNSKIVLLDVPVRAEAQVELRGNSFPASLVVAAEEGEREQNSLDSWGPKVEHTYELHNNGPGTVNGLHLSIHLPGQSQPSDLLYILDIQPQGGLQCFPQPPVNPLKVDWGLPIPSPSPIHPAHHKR
T1 sequence (P08514 891-1039 limits assumed): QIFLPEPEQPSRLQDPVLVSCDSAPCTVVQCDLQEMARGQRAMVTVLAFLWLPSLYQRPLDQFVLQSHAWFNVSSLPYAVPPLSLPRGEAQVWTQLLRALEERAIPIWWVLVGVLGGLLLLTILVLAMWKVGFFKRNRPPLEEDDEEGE

| Structure (SMILES) | IC50 [1] | IC50 (Homo sapiens) | further results |
| --- | --- | --- | --- |
| O=C(O)COc1ccc(C(=O)CNC(=O)c2sc3c(c2Cc2ccccc2)CNCC3)cc1OCC(=O)O | 62 nM | > 10000 nM |  |
| O=C(O)COc1ccc(C(=O)CNC(=O)CCCC2CCNCC2)cc1OCC(=O)O |  | 9000 nM | IC50 [2]: > 100 nM |
| Cc1c(C(=O)NCC(=O)c2ccc(OCC(=O)O)c(OCC(=O)O)c2)sc2c1CNCC2 | 18 nM | 2500 nM |  |
| NCC1CCC(C(=O)NCC(=O)c2ccc(OCC(=O)O)c(OCC(=O)O)c2)CC1 (centres undefined) |  | 4300 nM | IC50 [2]: 730 nM |
| O=C(O)COc1ccc(C(=O)CNC(=O)c2cc3c(s2)CNC3)cc1OCC(=O)O |  | 1600 nM | IC50 [2]: > 100 nM |
| O=C(O)COc1ccc(C(=O)CNC(=O)c2cc3c(s2)CCCNC3)cc1OCC(=O)O | 8.7 nM | 1900 nM |  |
| O=C(O)COc1ccc(C(=O)CNC(=O)c2cc3c(s2)CCNCC3)cc1OCC(=O)O | 6 nM | 150 nM |  |
| NC(N)=NCCC[C@H](N)C(=O)NCC(=O)N[C@@H](CC(=O)O)C(=O)O |  | 87000 nM | IC50 [3]: 510 nM; IC50 [4]: 1400 nM; IC50 [5]: 4000 nM; IC50 [2]: 76 nM |
| O=C(O)COc1ccc(C(=O)CNC(=O)C2CCNCC2)cc1OCC(=O)O | > 1000 nM | 9800 nM |  |
| O=C(O)CCc1ccc(C(=O)CNC(=O)c2cc3c(s2)CCNC3)cc1 | 80 nM | > 10000 nM |  |
| O=C(O)COc1ccc(C(=O)CNC(=O)CC2CCNCC2)cc1OCC(=O)O | > 100 nM | 10000 nM |  |
| O=C(O)COc1cc(OCC(=O)O)cc(C(=O)CNC(=O)c2cc3c(s2)CCNC3)c1 | > 1000 nM | > 10000 nM |  |
| O=C(O)COc1ccc(C(=O)CNC(=O)c2cc3c(s2)CCNC3)c(OCC(=O)O)c1 | > 100 nM | 1500 nM |  |
| O=C(O)COc1ccc(C(=O)CNC(=O)CCC2CCNCC2)cc1OCC(=O)O | 42 nM | 350 nM |  |
| O=C(O)COc1cnc(C(=O)CNC(=O)c2cc3c(s2)CCNC3)cc1OCC(=O)O | 9.8 nM | 470 nM |  |
| O=C(O)COc1ccc(C(=O)CNC(=O)c2cc3c(s2)CNCC3)cc1OCC(=O)O | 1.4 nM | 230 nM |  |
| O=C(O)COc1ccc(C(=O)CNC(=O)c2cc3c(s2)CCNC3)cc1OCC(=O)O | 4.7 nM and 5.6 nM | 160 nM | IC50 [3]: > 100000 nM; IC50 [4]: > 100000 nM; IC50 [6]: 28 nM |
| O=C(O)COc1ccc(C(=O)CNC(=O)c2cc3c(s2)CCNC3)nc1 | 100 nM | 720 nM |  |
| O=C(O)COc1ccc(C(=O)CNC(=O)c2cc3c(s2)CCNC3)cc1 | 31 nM | 1200 nM |  |
